One assay relates to LLC-MK2. Briefly: in vitro cytotoxicity (CCK-8). Format: cell-based, monkey. The settings on record: Primates; LLC-MK2 cells; 72 h; n=3.
Another assay relates to HEp-2. Briefly: in vitro cytotoxicity (CCK-8). Format: cell-based. The settings on record: Homo sapiens; HEp-2 cells; 72 h; n=3.
The next assay has as its system H1HeLa. Description: cells. Format: cell-based. The note with it: Homo sapiens, H1-HeLa, 72 h, n=3.
In the next assay the test system is Vero. Description: in vitro cytotoxicity (CCK-8). Format: cell-based, African green monkey. The settings on record: Chlorocebus sabaeus; Vero cells; 72 h; n=3.
A further assay deals with rhinovirus (Rhv). Briefly: in vitro antiviral assay (CPE, CCK-8). The note with it: Enterovirus, H1-HeLa. Format: cell-based.
Assay [1] has as its system respiratory syncytial virus (RSV). Description: in vitro antiviral assay (CPE, CCK-8). Format: cell-based. The settings on record: human respiratory syncytial virus, HEp-2 host cells, 100 TCID50, n=4.
For the next assay, the system named is Coxsackievirus B3 (CVB3). Description: in vitro antiviral assay (CPE, CCK-8). The note with it: Enterovirus B, LLC-MK2. Format: cell-based.
The test system of another assay is enterovirus (EV71). Briefly: in vitro antiviral assay (CPE, CCK-8). Format: cell-based. The settings on record: LLC-MK2 host cells, 100 TCID50, n=4. The method, then: • (1) Test Grouping: Concentrations were set up based on the comprehensive results of cytotoxicity assays and OD450nm, values, and literature reports on the antiviral effects of positive control drugs. The concentration without significant toxic effects on cells under microscopic observation was selected as the starting concentration for the in vitro antiviral test. […] All of them were diluted into 5 concentrations, with 4 replicate wells set up for each concentration. A virus titer of 100 TCID50 was used to infect the cells. The grouping was as follows: virus + drug group, in which the drug group included the test substance group and the positive control drug group; the virus control group (with virus and no drug), and the cell control group (with virus maintenance solution only). See Table 3 below for detail. • (2) Cell Plating: Cells were prepared into a single cell suspension (1×10^4 cells/mL), seeded into a 96-well cell culture plate at 100 µL per well, and incubated overnight in a 37°C, 5% CO2 incubator. • (3) Addition of Drug and Observation: The medium was discarded, and the cells were washed twice with 1×PBS. […] The OD450nm value of the cells was read using a microplate reader. The inhibition rates of virus by different concentrations of the test substance and their median effective concentration (EC50) against virus were calculated as follows. […]

Assay [2] has as its system parainfluenza virus (PIV). Briefly: in vitro antiviral assay (CPE, CCK-8). The settings on record: LLC-MK2 host cells, 100 TCID50, n=4. Format: cell-based.
The next assay relates to rotavirus (RV). Description: in vitro antiviral assay (CPE, CCK-8). Format: cell-based. The note with it: Vero.

The structures appear in SMILES notation. Converted amounts (≈) assume the structure as drawn. Bounds are passed on as bounds.

The IC50 is the midpoint of a concentration-inhibition curve. One may read the EC50 as the midpoint of the concentration-response curve. A lower EC50 goes with an effect from little substance.

Take `NC(=O)c1ncn([C@@H]2O[C@H](CO)[C@@H](O)[C@H]2O)n1` [Ribavirin]: the IC50 in the assay on LLC-MK2, in the assay on HEp-2, in the assay with H1HeLa and in the assay with Vero was > 1000 µg/mL in each case. In addition, the EC50 was > 30 µg/mL with rhinovirus (Rhv); > 10 µg/mL in assay [1]; 102 µg/mL (≈ 417 µM) in the assay with Coxsackievirus B3 (CVB3); 6.03 µg/mL (≈ 24.7 µM) with enterovirus (EV71); 20.9 µg/mL (≈ 85.7 µM) in [2]; 20.6 µg/mL (≈ 84.5 µM) with rotavirus (RV).

These data come from patent publication EP4653008A1, “TRADITIONAL CHINESE MEDICINE COMPOSITION HAVING EFFICACY IN TREATING COLDS AND USE THEREOF” (Shijiazhuang Yiling Pharmaceutical Co., Ltd., priority 2023, dated 2024).
